Experimental data reported in patent publication US20230404998A1, “Combination Therapies for Treating Cancer” (ASCENTAGE PHARMA (SUZHOU) CO., LTD., priority 2020, published 2023).
Marks after values point to notes of the source that are not given here.

Legend:
[1] = tested on: T315I orthotopic tumor model; experiment: In vivo efficacy, T315I orthotopic tumor model; set-up: species or system mouse; conditions: ABL001 60 mg/kg, Ponatinib 20 mg/kg, HQP1351 20 mg/kg
Procedure: (§1) In vivo efficacy was evaluated using the syngeneic mouse model derived from BaF3 cells with T315I and/or compound mutations. Tumor models were established by intravenously injecting tumor cells (1×10^5/mouse) into the caudal vein under sterile conditions. Mice were randomized into control and treatment groups with 8-10 mice per group and start the treatment from the second day post inoculation. The animal body weights were measured twice a week. The antitumor activity curves of test articles were plotted with the treatment time (day) on the X-axis, and corresponding survival rate on the Y-axis. A Log-rank (Mental-cox) test was employed to analyze the statistical significance of any difference between the treatment group and the control group. Prism version 7 (GraphPad Software Inc., San Diego, CA) was used for all statistical analysis and for graphic presentation.

[2] = tested on: p-SRC and PD-L1 expression in H460 and A549 cells; experiment: Western blot / RT-PCR of p-SRC and PD-L1 expression in NSCLC cell lines; type: cell-based, human
Procedure: Cells were treated with the indicated concentrations and washed twice with cold PBS. Whole cell extracts were collected in RIPA lysis buffer (Santa Cruz Biotechnology, Germany), and protein concentration of the lysates was measured using a BCA Protein Assay Kit (ThermoFisher, USA). The protein samples were electrophoresed through a 10% SDS-PAGE gel and transferred to a polyvinylidene difluoride (PVDF) membrane (Roche, USA). After blocking, membranes were probed with primary antibodies (1:1000) against SRC, p-SRC, PD-L1, GAPDH, 0-tubulin (Cell Signaling Technology, USA) followed by washing and incubation with a secondary antibody (1:5000) conjugated to horseradish peroxidase (Santa Cruz Biotechnology, USA). Protein bands were visualized by applying a chemiluminescent reagent (Pierce ECL kit, Thermo Fisher Scientific, USA) and protein level were quantified by Image Lab (Bio-Rad Laboratory, USA).
Total cellular RNA was extracted by Trizol (Invitrogen, USA) for mRNA analysis. RNA was reverse-transcribed to cDNA profile through using the Transcriptor First Strand cDNA Synthesis kit (Roche Applied Science, USA) and then Real time PCR reactions were performed using the FastStart SYBR Green Master (ROX) reagent (Roche Applied Science, USA) according to the manufacturer's instructions. […]

[3] = tested on: F317L/T315I orthotopic tumor model; experiment: In vivo efficacy, F317L/T315I orthotopic tumor model; set-up: species or system mouse; conditions: ABL001 60 mg/kg, Ponatinib 20 mg/kg, HQP1351 20 mg/kg
Procedure: as §1

[4] = tested on: PD-L1 in RCC cells; experiment: PD-L1 expression in RCC cells; type: cell-based
[5] = tested on: RANCA tumor tissues; experiment: Tumor-infiltrating lymphocyte assays in RANCA tumor tissues; type: in vivo, mouse
[6] = target: T1, BCR-ABL single or compound mutations (BaF3 cells) (Homo sapiens, UniProt P00519, cells depend on it, form not given); experiment: Cell based anti-proliferation studies, BaF3 cells with BCR-ABL single or compound mutations (summary); set-up: species or system murine
T1 construct: fused on or other part: P11274 (Breakpoint cluster region protein)
Procedure: (§2) The anti-proliferative effect was determined by a water-soluble tetrazolium (WST)-based assay using Cell Counting Kit-8 (CCK-8, #D3100L4057, Shanghai life ilab bio technology co., LTD, China). Cells were seeded in 96-well plates and treated with different concentrations of test articles. […] Each treatment was tested in triplicates. The plate was then cultured at 37° C. with 5% CO2 for 72 hours. At the end of treatments, 20 μl/well of CCK-8 reagent was directly added to each wells. The plate was then incubated at 37° C. with 5% CO2 for 2-4 h. The OD value was detected at 450 nm on a microplate reader (SpectraMax I3X, Molecular Devices, US). IC50 values were calculated with Graphpad Prism 7.0 software using nonlinear regression (curve fitting) type data analysis. For combination effect assay, the cells viability was normalized using the mean OD value of triplicated wells for the single agent control.
A series of cell lines expressing BCR-ABL single or compound mutations were constructed based on BaF3 murine pro-B cell line.

[7] = tested on: RANCA; experiment: Antiproliferative activity in RCC line RANCA; type: cell-based; conditions: Mus musculus; murine RCC line RANCA
[8] = target: VEGFR3 (Homo sapiens, UniProt P35916); experiment: Cell-free kinase assay VEGFR3; type: biochemical
[9] = target: VEGFR2 (Homo sapiens, UniProt P35968); experiment: Cell-free kinase assay VEGFR2; type: biochemical
[10] = target: BaF3(Bcr-Abl) T316I-M244V (Homo sapiens, UniProt P00519, M244V/T315I, cells depend on it); conditions: read-out: Anti-proliferation (IC50)
Procedure: as §2

[11] = target: BaF3(Bcr-Abl) G250E (Homo sapiens, UniProt P00519, G250E, cells depend on it); conditions: read-out: Anti-proliferation (IC50)
Procedure: as §2

[12] = target: BaF3(Bcr-Abl) T315I-E453K (Homo sapiens, UniProt P00519, T315I/E453K, cells depend on it); conditions: read-out: Anti-proliferation (IC50)
Procedure: as §2

[13] = target: BaF3(Bcr-Abl) T315I-E459K (Homo sapiens, UniProt P00519, T315I/E459K, cells depend on it); conditions: read-out: Anti-proliferation (IC50)
Procedure: as §2

[14] = target: BaF3(Bcr-Abl) T315I-M351T (Homo sapiens, UniProt P00519, T315I/M351T, cells depend on it); conditions: read-out: Anti-proliferation (IC50)
Procedure: as §2

[15] = target: BaF3(Bcr-Abl) T315I-H396R (Homo sapiens, UniProt P00519, T315I/H396R, cells depend on it); conditions: read-out: Anti-proliferation (IC50)
Procedure: as §2

[16] = target: BaF3(Bcr-Abl) T3151 (Homo sapiens, UniProt P00519, T315I, cells depend on it); conditions: read-out: Anti-proliferation (IC50)
Procedure: as §2

[17] = target: BaF3(Bcr-Abl) Y253H-F359V (Homo sapiens, UniProt P00519, Y253H/F359V, cells depend on it); conditions: read-out: Anti-proliferation (IC50)
Procedure: as §2

[18] = target: BaF3(Bcr-Abl) T315I-Y253H (Homo sapiens, UniProt P00519, Y253H/T315I, cells depend on it); conditions: read-out: Anti-proliferation (IC50)
Procedure: as §2

[19] = target: BaF3(Bcr-Abl) F317L (Homo sapiens, UniProt P00519, F317L, cells depend on it); conditions: read-out: Anti-proliferation (IC50)
Procedure: as §2

[20] = target: BaF3(Bcr-Abl) M351T (Homo sapiens, UniProt P00519, M351T, cells depend on it); conditions: read-out: Anti-proliferation (IC50)
Procedure: as §2

[21] = target: BaF3(Bcr-Abl) T315I-G250E (Homo sapiens, UniProt P00519, G250E/T315I, cells depend on it); conditions: read-out: Anti-proliferation (IC50)
Procedure: as §2

[22] = target: BaF3(Bcr-Abl) T315M (Homo sapiens, UniProt P00519, T315M, cells depend on it); conditions: read-out: Anti-proliferation (IC50)
Procedure: as §2

[23] = tested on: VEGFR, SRC, Akt and extracellular signal-regulated kinases in vascular endothelial cells; experiment: Phosphorylation of VEGFR, SRC and downstream proteins in vascular endothelial cells; type: cell-based
[24] = tested on: RAG; experiment: Antiproliferative activity in RCC line RAG; type: cell-based; conditions: Mus musculus; murine RCC line RAG

Sequence of VEGFR2 (P35968 20-1356): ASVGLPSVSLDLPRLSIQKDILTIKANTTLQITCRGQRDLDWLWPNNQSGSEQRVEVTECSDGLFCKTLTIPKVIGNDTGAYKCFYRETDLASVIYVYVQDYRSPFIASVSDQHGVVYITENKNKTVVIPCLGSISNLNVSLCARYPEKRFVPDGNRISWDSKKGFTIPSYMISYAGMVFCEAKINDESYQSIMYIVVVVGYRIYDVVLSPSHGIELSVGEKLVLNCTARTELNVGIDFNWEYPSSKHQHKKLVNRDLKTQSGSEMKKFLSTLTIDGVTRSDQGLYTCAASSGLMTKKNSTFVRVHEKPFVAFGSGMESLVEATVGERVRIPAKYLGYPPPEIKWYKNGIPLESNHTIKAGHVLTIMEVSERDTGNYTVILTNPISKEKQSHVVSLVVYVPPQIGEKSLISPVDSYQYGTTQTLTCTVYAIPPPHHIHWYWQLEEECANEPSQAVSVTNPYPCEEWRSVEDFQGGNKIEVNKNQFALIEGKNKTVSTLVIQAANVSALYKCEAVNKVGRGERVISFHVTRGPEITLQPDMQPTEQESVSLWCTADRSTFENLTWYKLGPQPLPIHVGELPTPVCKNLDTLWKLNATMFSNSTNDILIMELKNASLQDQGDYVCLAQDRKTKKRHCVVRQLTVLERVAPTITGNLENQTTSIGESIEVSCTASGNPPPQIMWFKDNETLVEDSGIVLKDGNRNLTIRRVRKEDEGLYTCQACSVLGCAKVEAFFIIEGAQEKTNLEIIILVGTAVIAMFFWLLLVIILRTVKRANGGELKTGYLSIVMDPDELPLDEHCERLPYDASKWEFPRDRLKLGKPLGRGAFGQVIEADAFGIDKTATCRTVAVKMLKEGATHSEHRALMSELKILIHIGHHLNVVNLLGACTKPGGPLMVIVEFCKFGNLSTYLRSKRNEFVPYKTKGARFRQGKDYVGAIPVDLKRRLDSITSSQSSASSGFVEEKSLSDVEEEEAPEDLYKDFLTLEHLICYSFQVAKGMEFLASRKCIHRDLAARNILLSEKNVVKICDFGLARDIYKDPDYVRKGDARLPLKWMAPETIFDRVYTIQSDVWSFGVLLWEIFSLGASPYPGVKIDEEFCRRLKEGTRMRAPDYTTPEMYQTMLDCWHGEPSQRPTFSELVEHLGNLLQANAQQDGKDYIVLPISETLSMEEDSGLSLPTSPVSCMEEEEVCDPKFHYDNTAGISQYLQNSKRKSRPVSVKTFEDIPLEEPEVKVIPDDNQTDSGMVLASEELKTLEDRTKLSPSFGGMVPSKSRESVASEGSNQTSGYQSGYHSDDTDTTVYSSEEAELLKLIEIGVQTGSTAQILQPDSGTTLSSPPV
Sequence of VEGFR3 (P35916 25-1363): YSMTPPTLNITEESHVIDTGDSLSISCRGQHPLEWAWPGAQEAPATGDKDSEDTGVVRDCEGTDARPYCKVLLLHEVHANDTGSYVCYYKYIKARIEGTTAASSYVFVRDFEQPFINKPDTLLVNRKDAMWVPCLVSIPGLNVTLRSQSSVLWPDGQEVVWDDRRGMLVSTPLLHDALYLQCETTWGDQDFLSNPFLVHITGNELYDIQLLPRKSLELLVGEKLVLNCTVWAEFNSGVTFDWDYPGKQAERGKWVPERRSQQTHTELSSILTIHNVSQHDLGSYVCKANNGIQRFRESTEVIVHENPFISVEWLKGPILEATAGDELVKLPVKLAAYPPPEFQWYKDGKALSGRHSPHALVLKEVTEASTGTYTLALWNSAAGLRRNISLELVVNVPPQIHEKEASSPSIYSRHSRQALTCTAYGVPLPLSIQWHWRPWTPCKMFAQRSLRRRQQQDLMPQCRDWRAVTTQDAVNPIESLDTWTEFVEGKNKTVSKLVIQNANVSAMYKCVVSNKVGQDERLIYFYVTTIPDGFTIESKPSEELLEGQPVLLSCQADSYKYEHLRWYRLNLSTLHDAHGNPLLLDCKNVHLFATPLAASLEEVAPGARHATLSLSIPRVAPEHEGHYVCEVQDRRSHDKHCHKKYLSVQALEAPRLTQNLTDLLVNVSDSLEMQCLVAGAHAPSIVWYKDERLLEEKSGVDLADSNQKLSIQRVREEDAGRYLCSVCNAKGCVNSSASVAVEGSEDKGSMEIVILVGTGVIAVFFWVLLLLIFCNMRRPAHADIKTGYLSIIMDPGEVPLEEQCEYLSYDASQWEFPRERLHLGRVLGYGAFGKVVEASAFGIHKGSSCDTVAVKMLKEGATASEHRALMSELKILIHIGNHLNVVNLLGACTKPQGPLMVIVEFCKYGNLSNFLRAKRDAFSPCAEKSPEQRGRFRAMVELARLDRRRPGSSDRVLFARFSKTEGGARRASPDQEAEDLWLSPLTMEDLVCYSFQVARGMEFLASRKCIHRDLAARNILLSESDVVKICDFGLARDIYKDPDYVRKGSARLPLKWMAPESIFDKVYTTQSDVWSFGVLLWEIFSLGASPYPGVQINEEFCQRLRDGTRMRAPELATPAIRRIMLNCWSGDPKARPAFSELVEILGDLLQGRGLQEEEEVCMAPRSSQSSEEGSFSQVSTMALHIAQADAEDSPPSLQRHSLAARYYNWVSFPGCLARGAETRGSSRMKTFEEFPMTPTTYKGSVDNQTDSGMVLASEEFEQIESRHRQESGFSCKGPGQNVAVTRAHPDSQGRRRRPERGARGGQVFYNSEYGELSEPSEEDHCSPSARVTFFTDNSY

Cc1ccc(C(=O)Nc2ccc(CN3CCN(C)CC3)c(C(F)(F)F)c2)cc1C#Cc1cnc2[nH]ncc2c1 [HQP1351, 3-(2-(1H-pyrazolo[3,4-b]pyridin-5-yl)ethynyl)-4-methyl-N-(4-((4-methylpiperazin-1-yl)methyl)-3-(trifluoromethyl)phenyl)-benzamide]
Median survival [1]: 27.0****
Survival prolongation (%) [1]: 28.57%
Survive/Total @ D43 [1]: 0/10
PD-L1 and p-SRC levels at different time points ([2]; 2 μM HQP-1351): time-dependent suppression of PD-L1 and p-SRC levels
PD-L1 expression and p-SRC phosphorylation, differing concentrations ([2]; NSCLC cell lines, 24 h, Western blot): decreased PD-L1 expression as well as p-SRC phosphorylation in a concentration-dependent manner
Median survival [3]: 25.0****^$
Survival prolongation (%) [3]: 42.86%
Survive/Total @ 24 [3]: 0/8
Expression of PD-L1 in RCC cells [4]: reduced expression of PD-L1
Immune cell numbers in RANCA tumor tissues [5]: increased numbers of cytotoxic T cells (CTL, CD8^+) and natural-killer cells
Anti-proliferative effectiveness against compound mutations compared with other TKIs ([6]; BCR-ABL compound mutations): more effective than ponatinib, asciminib and other TKIs
GI50 ([6]; read-out: IC50 values toward BCR-ABL single or compound mutations, range over BaF3 BCR-ABL mutant cell lines): 6 to 300 nM
IC50 [7]: 141 nM
IC50 [8]: 4.1 nM
IC50 [9]: 6.1 nM
GI50 [10]: 76 ± 53 nM
GI50 [11]: 29 ± 4 nM
GI50 [12]: 61 ± 27 nM
GI50 [13]: 109 ± 4 nM
GI50 [14]: 67 ± 44 nM
GI50 [15]: 79 ± 54 nM
GI50 [16]: 24 ± 10 nM
GI50 [17]: 311 ± 35 nM
GI50 [18]: 114 ± 1 nM
GI50 [19]: 8 ± 3 nM
GI50 [20]: 9 ± 1 nM
GI50 [21]: 33 ± 2 nM
GI50 [22]: 217 ± 131 nM
Phosphorylation of VEGFR, SRC, and downstream proteins Akt and extracellular signal-regulated kinases [23]: inhibiting phosphorylation of VEGFR, SRC, and downstream proteins
IC50 [24]: 53 nM
